Data published in PubChem BioAssay (NCI).
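Cultured in 96-well plates, cells were exposed to test compound for 48 hours across five concentrations. TGI marks complete inhibition of growth.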

Columns and labels:
Experiment in all cases: growth of human tumour cells (NCI), 48 h
PC-3 prostate = tested on: PC-3 prostate
TK-10 renal = tested on: TK-10 renal
SR leukemia = tested on: SR leukemia
RXF 393 renal = tested on: RXF 393 renal
MALME-3M melanoma = tested on: MALME-3M melanoma
SW-620 colon = tested on: SW-620 colon
RPMI-8226 leukemia = tested on: RPMI-8226 leukemia
NCI/ADR-RES ovarian = tested on: NCI/ADR-RES ovarian
UO-31 renal = tested on: UO-31 renal
HOP-62 NSCLC = tested on: HOP-62 NSCLC
NCI-H226 lung = tested on: NCI-H226 lung
CAKI-1 renal = tested on: CAKI-1 renal
CCRF-CEM leukemia = tested on: CCRF-CEM leukemia
HCC-2998 colon = tested on: HCC-2998 colon
SNB-19 CNS = tested on: SNB-19 CNS
UACC-62 melanoma = tested on: UACC-62 melanoma
MDA-MB-435 = tested on: MDA-MB-435
T-47D breast = tested on: T-47D breast
SF-539 CNS = tested on: SF-539 CNS
MDA-N = tested on: MDA-N
SN12C renal = tested on: SN12C renal
M14 melanoma = tested on: M14 melanoma
IGROV1 ovarian = tested on: IGROV1 ovarian
A498 renal = tested on: A498 renal
A549 NSCLC = tested on: A549 NSCLC
NCI-H460 lung = tested on: NCI-H460 lung
HCT-116 colon = tested on: HCT-116 colon
SK-MEL-28 melanoma = tested on: SK-MEL-28 melanoma
SNB-75 CNS = tested on: SNB-75 CNS
OVCAR-4 ovarian = tested on: OVCAR-4 ovarian
MOLT-4 leukemia = tested on: MOLT-4 leukemia
HOP-92 NSCLC = tested on: HOP-92 NSCLC
SF-295 CNS = tested on: SF-295 CNS
HS 578T breast = tested on: HS 578T breast
HCT-15 colon = tested on: HCT-15 colon
SK-MEL-2 melanoma = tested on: SK-MEL-2 melanoma
BT-549 breast = tested on: BT-549 breast
OVCAR-8 ovarian = tested on: OVCAR-8 ovarian
MCF7 breast = tested on: MCF7 breast
NCI-H23 lung = tested on: NCI-H23 lung
OVCAR-5 ovarian = tested on: OVCAR-5 ovarian
SF-268 CNS = tested on: SF-268 CNS
KM12 colon = tested on: KM12 colon
U251 CNS = tested on: U251 CNS
COLO 205 colon = tested on: COLO 205 colon
786-0 renal = tested on: 786-0 renal
UACC-257 melanoma = tested on: UACC-257 melanoma
SK-MEL-5 melanoma = tested on: SK-MEL-5 melanoma
ACHN renal = tested on: ACHN renal
HL-60(TB) leukemia = tested on: HL-60(TB) leukemia
DU-145 prostate = tested on: DU-145 prostate
OVCAR-3 ovarian = tested on: OVCAR-3 ovarian
HT29 colon = tested on: HT29 colon
SK-OV-3 ovarian = tested on: SK-OV-3 ovarian
LOX IMVI melanoma = tested on: LOX IMVI melanoma
EKVX NSCLC = tested on: EKVX NSCLC
K-562 leukemia = tested on: K-562 leukemia
NCI-H522 lung = tested on: NCI-H522 lung
MDA-MB-231 breast = tested on: MDA-MB-231 breast

O=C1NC(Nc2cccc(Cl)c2)=N/C1=C\c1ccc(Cl)c(Cl)c1
TGI (PC-3 prostate): 13.3 µM
TGI (TK-10 renal): 22.4 µM
TGI (SR leukemia): 7.37 µM
TGI (RXF 393 renal): 10.4 µM
TGI (MALME-3M melanoma): 27.8 µM
TGI (SW-620 colon): 19.6 µM
TGI (RPMI-8226 leukemia): 22.7 µM
TGI (NCI/ADR-RES ovarian): 16.2 µM
TGI (UO-31 renal): 20.6 µM
TGI (HOP-62 NSCLC): 23.4 µM
TGI (NCI-H226 lung): 17.2 µM
TGI (CAKI-1 renal): 18.4 µM
TGI (CCRF-CEM leukemia): 35.3 µM
TGI (HCC-2998 colon): 5.27 µM
TGI (SNB-19 CNS): 21 µM
TGI (UACC-62 melanoma): 21.6 µM
TGI (MDA-MB-435): 17.6 µM
TGI (T-47D breast): 14.2 µM
TGI (SF-539 CNS): 22.2 µM
TGI (MDA-N): 15.8 µM
TGI (SN12C renal): 5.57 µM
TGI (M14 melanoma): 14.9 µM
TGI (IGROV1 ovarian): 18.7 µM
TGI (A498 renal): 16.3 µM
TGI (A549 NSCLC): 16 µM
TGI (NCI-H460 lung): 5.67 µM
TGI (HCT-116 colon): 14.2 µM
TGI (SK-MEL-28 melanoma): 32.1 µM
TGI (SNB-75 CNS): 26.6 µM
TGI (OVCAR-4 ovarian): 5.49 µM
TGI (MOLT-4 leukemia): 20.8 µM
TGI (HOP-92 NSCLC): 11.4 µM
TGI (SF-295 CNS): 17.2 µM
TGI (HS 578T breast): 13.4 µM
TGI (HCT-15 colon): 18.6 µM
TGI (SK-MEL-2 melanoma): 6.77 µM
TGI (BT-549 breast): 25.1 µM
TGI (OVCAR-8 ovarian): 16 µM
TGI (MCF7 breast): 11.1 µM
TGI (NCI-H23 lung): 14.1 µM
TGI (OVCAR-5 ovarian): 21.8 µM
TGI (SF-268 CNS): 19.4 µM
TGI (KM12 colon): 14.8 µM
TGI (U251 CNS): 14.6 µM
TGI (COLO 205 colon): 13.1 µM
TGI (786-0 renal): 13 µM
TGI (UACC-257 melanoma): 22.2 µM
TGI (SK-MEL-5 melanoma): 19.1 µM
TGI (ACHN renal): 17 µM
TGI (HL-60(TB) leukemia): 15.1 µM
TGI (DU-145 prostate): 20.6 µM
TGI (OVCAR-3 ovarian): 19.7 µM
TGI (HT29 colon): 19.6 µM
TGI (SK-OV-3 ovarian): 27.5 µM
TGI (LOX IMVI melanoma): 4.26 µM
TGI (EKVX NSCLC): 12.2 µM
TGI (K-562 leukemia): 14.5 µM
TGI (NCI-H522 lung): 6.62 µM

Cc1cc(O)c(/C=N/C(=S)NCCc2ccccc2)c(=O)o1
TGI (PC-3 prostate): > 100 µM
TGI (TK-10 renal): > 100 µM
TGI (SW-620 colon): > 100 µM
TGI (NCI/ADR-RES ovarian): > 100 µM
TGI (UO-31 renal): > 100 µM
TGI (HOP-62 NSCLC): > 100 µM
TGI (NCI-H226 lung): > 100 µM
TGI (CAKI-1 renal): > 100 µM
TGI (HCC-2998 colon): > 100 µM
TGI (SNB-19 CNS): > 100 µM
TGI (MDA-MB-435): > 100 µM
TGI (T-47D breast): > 100 µM
TGI (SF-539 CNS): > 100 µM
TGI (MDA-N): > 100 µM
TGI (SN12C renal): > 100 µM
TGI (M14 melanoma): > 100 µM
TGI (IGROV1 ovarian): > 100 µM
TGI (A549 NSCLC): > 100 µM
TGI (NCI-H460 lung): > 100 µM
TGI (MDA-MB-231 breast): > 100 µM
TGI (HCT-116 colon): > 100 µM
TGI (SK-MEL-28 melanoma): > 100 µM
TGI (SNB-75 CNS): > 100 µM
TGI (OVCAR-4 ovarian): > 100 µM
TGI (MOLT-4 leukemia): > 100 µM
TGI (HOP-92 NSCLC): > 100 µM
TGI (SF-295 CNS): > 100 µM
TGI (HCT-15 colon): > 100 µM
TGI (SK-MEL-2 melanoma): > 100 µM
TGI (BT-549 breast): > 100 µM
TGI (OVCAR-8 ovarian): > 100 µM
TGI (MCF7 breast): > 100 µM
TGI (NCI-H23 lung): > 100 µM
TGI (OVCAR-5 ovarian): > 100 µM
TGI (KM12 colon): > 100 µM
TGI (U251 CNS): > 100 µM
TGI (COLO 205 colon): > 100 µM
TGI (786-0 renal): > 100 µM
TGI (UACC-257 melanoma): > 100 µM
TGI (SK-MEL-5 melanoma): > 100 µM
TGI (ACHN renal): > 100 µM
TGI (HL-60(TB) leukemia): > 100 µM
TGI (DU-145 prostate): > 100 µM
TGI (OVCAR-3 ovarian): > 100 µM
TGI (HT29 colon): > 100 µM
TGI (SK-OV-3 ovarian): > 100 µM
TGI (LOX IMVI melanoma): > 100 µM
TGI (EKVX NSCLC): > 100 µM
